Laboratory results: ChEMBL document CHEMBL4002605, “Synthesis, identification and in vitro biological evaluation of some novel quinoline incorporated 1,3-thiazinan-4-one derivatives” (Bioorg Med Chem Lett, 2017)
Converted amounts (≈) assume the structure as drawn.

Assays:
Streptococcus pneumoniae = assay: Antibacterial activity against Streptococcus pneumoniae MTCC 1936 by broth microdilution assay method; format: functional
Bacillus subtilis = assay: Antibacterial activity against Bacillus subtilis MTCC 441 by broth microdilution assay method; format: functional
Clostridium tetani = assay: Antibacterial activity against Clostridium tetani MTCC 449 by broth microdilution assay method; format: functional
Escherichia coli = assay: Antibacterial activity against Escherichia coli MTCC 443 by broth microdilution assay method; format: functional
Salmonella typhi = assay: Antibacterial activity against Salmonella typhi MTCC 98 by broth microdilution assay method; format: functional, Salmonella enterica subsp. enterica serovar Typhi; settings: Salmonella enterica
Vibrio cholerae = assay: Antibacterial activity against Vibrio cholerae MTCC 3906 by broth microdilution assay method; format: functional
[1] = test system: Mycobacterium tuberculosis; assay: Antitubercular activity against Mycobacterium tuberculosis H37Rv at 6 ug/mL; format: functional
Plasmodium falciparum = assay: Antimalarial activity against Plasmodium falciparum; format: functional

SMILES	MIC (Streptococcus pneumoniae) [µg/mL]	MIC (Bacillus subtilis) [µg/mL]	MIC (Clostridium tetani) [µg/mL]	MIC (Escherichia coli) [µg/mL]	MIC (Salmonella typhi) [µg/mL]	MIC (Vibrio cholerae) [µg/mL]	inhibition at 6 µg/mL [1] [%]	IC50 (Plasmodium falciparum) [µg/mL]
O=C1CCSC(c2ccc(Cl)cc2)N1CCCCNc1ccnc2cc(Cl)ccc12 (centres undefined)	250 (≈ 543 µM)	250 (≈ 543 µM)	125 (≈ 271 µM)	250 (≈ 543 µM)	125 (≈ 271 µM)	62.5 (≈ 136 µM)	60	0.14 (≈ 0.304 µM)
COc1ccc(C2SCCC(=O)N2CCCNc2ccnc3cc(Cl)ccc23)cc1 (centres undefined)	125 (≈ 283 µM)	125 (≈ 283 µM)	250 (≈ 566 µM)	250 (≈ 566 µM)	500 (≈ 1130 µM)	250 (≈ 566 µM)	57	0.52 (≈ 1.18 µM)
O=C1CCSC(c2ccc(Cl)cc2)N1CCCNc1ccnc2cc(Cl)ccc12 (centres undefined)	62.5 (≈ 140 µM)	125 (≈ 280 µM)	250 (≈ 560 µM)	125 (≈ 280 µM)	250 (≈ 560 µM)	250 (≈ 560 µM)	67	0.12 (≈ 0.269 µM)
O=C1CCSC(c2ccc(Br)cc2)N1CCCCNc1ccnc2cc(Cl)ccc12 (centres undefined)	100 (≈ 198 µM)	100 (≈ 198 µM)	250 (≈ 495 µM)	62.5 (≈ 124 µM)	62.5 (≈ 124 µM)	125 (≈ 248 µM)	82	0.064 (≈ 0.127 µM)
O=C1CCSC(c2cccc(Cl)c2)N1CCCNc1ccnc2cc(Cl)ccc12 (centres undefined)	250 (≈ 560 µM)	125 (≈ 280 µM)	250 (≈ 560 µM)	250 (≈ 560 µM)	250 (≈ 560 µM)	250 (≈ 560 µM)	55	1.62 (≈ 3.63 µM)
COc1cccc(C2SCCC(=O)N2NC(=O)c2cnc3c(C(F)(F)F)cccc3c2O)c1 (centres undefined)	500 (≈ 1050 µM)	250 (≈ 524 µM)	500 (≈ 1050 µM)	250 (≈ 524 µM)	250 (≈ 524 µM)	250 (≈ 524 µM)	65	1.7 (≈ 3.56 µM)
O=C1CCSC(c2cccc(F)c2)N1CCCCNc1ccnc2cc(Cl)ccc12 (centres undefined)	250 (≈ 563 µM)	250 (≈ 563 µM)	125 (≈ 282 µM)	125 (≈ 282 µM)	100 (≈ 225 µM)	125 (≈ 282 µM)	55	1.31 (≈ 2.95 µM)
O=C1CCSC(c2ccc(O)cc2)N1CCCNc1ccnc2cc(Cl)ccc12 (centres undefined)	125 (≈ 292 µM)	250 (≈ 584 µM)	250 (≈ 584 µM)	250 (≈ 584 µM)	62.5 (≈ 146 µM)	250 (≈ 584 µM)	42	1.14 (≈ 2.66 µM)
COc1cccc(C2SCCC(=O)N2CCCNc2ccnc3cc(Cl)ccc23)c1 (centres undefined)	250 (≈ 566 µM)	250 (≈ 566 µM)	500 (≈ 1130 µM)	250 (≈ 566 µM)	250 (≈ 566 µM)	500 (≈ 1130 µM)	51	1.87 (≈ 4.23 µM)
Cc1ccc(C2SCCC(=O)N2NC(=O)c2cnc3c(C(F)(F)F)cccc3c2O)cc1 (centres undefined)	500 (≈ 1080 µM)	250 (≈ 542 µM)	250 (≈ 542 µM)	500 (≈ 1080 µM)	250 (≈ 542 µM)	500 (≈ 1080 µM)	60	1.56 (≈ 3.38 µM)
O=C1CCSC(c2ccc(O)cc2)N1CCNc1ccnc2cc(Cl)ccc12 (centres undefined)	250 (≈ 604 µM)	62.5 (≈ 151 µM)	250 (≈ 604 µM)	500 (≈ 1210 µM)	250 (≈ 604 µM)	250 (≈ 604 µM)	74	1.78 (≈ 4.3 µM)
O=C(NN1C(=O)CCSC1c1ccc(F)cc1)c1cnc2c(C(F)(F)F)cccc2c1O (centres undefined)	125 (≈ 269 µM)	31.2 (≈ 67.1 µM)	15.6 (≈ 33.5 µM)	125 (≈ 269 µM)	250 (≈ 537 µM)	125 (≈ 269 µM)	92	0.052 (≈ 0.112 µM)
COc1cccc(C2SCCC(=O)N2CCCCNc2ccnc3cc(Cl)ccc23)c1 (centres undefined)	500 (≈ 1100 µM)	500 (≈ 1100 µM)	250 (≈ 548 µM)	250 (≈ 548 µM)	250 (≈ 548 µM)	125 (≈ 274 µM)	42	2.14 (≈ 4.69 µM)
O=C1CCSC(c2ccccc2)N1CCCCNc1ccnc2cc(Cl)ccc12 (centres undefined)	500 (≈ 1170 µM)	500 (≈ 1170 µM)	500 (≈ 1170 µM)	500 (≈ 1170 µM)	500 (≈ 1170 µM)	500 (≈ 1170 µM)	32	3.12 (≈ 7.32 µM)
O=C1CCSC(c2cccc(Cl)c2)N1CCNc1ccnc2cc(Cl)ccc12 (centres undefined)	125 (≈ 289 µM)	250 (≈ 578 µM)	250 (≈ 578 µM)	125 (≈ 289 µM)	250 (≈ 578 µM)	250 (≈ 578 µM)	60	1.57 (≈ 3.63 µM)
COc1ccc(C2SCCC(=O)N2NC(=O)c2cnc3c(C(F)(F)F)cccc3c2O)cc1 (centres undefined)	250 (≈ 524 µM)	125 (≈ 262 µM)	250 (≈ 524 µM)	250 (≈ 524 µM)	125 (≈ 262 µM)	250 (≈ 524 µM)	70	1.45 (≈ 3.04 µM)
COc1ccc(C2SCCC(=O)N2CCCCNc2ccnc3cc(Cl)ccc23)cc1 (centres undefined)	250 (≈ 548 µM)	250 (≈ 548 µM)	250 (≈ 548 µM)	500 (≈ 1100 µM)	250 (≈ 548 µM)	125 (≈ 274 µM)	48	0.81 (≈ 1.78 µM)
O=C1CCSC(c2cccc(F)c2)N1CCNc1ccnc2cc(Cl)ccc12 (centres undefined)	125 (≈ 301 µM)	250 (≈ 601 µM)	250 (≈ 601 µM)	62.5 (≈ 150 µM)	250 (≈ 601 µM)	250 (≈ 601 µM)	66	1.05 (≈ 2.52 µM)
